Laboratory results reported in US9604987B2, “Synthesis of autophagy inducing compound and the uses thereof” (Hong Kong Baptist University, priority 2012, dated 2017).

Experiments:
N2a cells = test: Western blot of autophagy marker LC3-II in N2a cells; type: cell-based, mouse; details: for pro-autophagic activity (LC3II protein signal): various concentrations, 12 hrs
Description: Native and denatured PAGE and Western blotting analysis. Samples to be run under denaturing conditions were lysed with RIPA lysis buffer (150 mM NaCl, 50 mM Tris-HCl, 0.35% sodium deoxycholate, 1 mM EDTA, 1% NP40, 1 mM PMSF, 5 μg/ml aprotinin, 5 μg/ml leupeptin). Samples for native gels were lysed with detergent-free lysis buffer (50 mM Tris/HCl pH 7.4, 175 mM NaCl, 5 mM EDTA pH 8.0, 1 mM PMSF, 5 μg/ml aprotinin, 5 μg/ml leupeptin), and sheared 5 times through a 28-gauge needle followed by 2 times of sonication for 5 seconds according to previously described protocol. For denaturing, SDS-PAGE was performed using Tris-Glycine SDS running buffer and SDS sample buffer, and for native conditions, native-PAGE was run with detergent-free Tris-Glycine running buffer (BN2007, Invitrogen) and 4× native sample buffer (BN2003, Invitrogen) on a pre-casted native PAGE gel (BN1002BOX, Invitrogen). The proteins on the gels were then transferred to PVDF membrane (RPN303F, GE Healthcare) and processed for immunoblotting. Membranes were blocked with 5% non-fat milk and probed with the appropriate primary and secondary antibodies. The desired bands were visualized using the ECL kit (32106, Pierce). The band density was quantified using the ImageJ program and normalized to that of the control group.
In order to confirm the neuronal autophagy inducing activity of Cory B (its chemical structure is shown in FIG. 1A), mouse neuroblastoma N2a, rat phenochromocytoma PC12 and human neurobastoma SH-SY5Y are treated with different concentrations of Cory B for 24 hours and cell lysates are subjected to western blotting analysis of LC3-II expression which is an autophagy-specific marker.
To confirm that enhancement of autophagy markers by Cory B is due to induction of autophagy rather than blockage of autophagosome maturation, N2a cells are treated with 25 μM Cory B or 30 μM lysosome inhibitor CQ together with Cory B for 12 hours. Cell lysates are subject to western blot analysis. Data are presented as the mean±SEM from 3 independent experiments (***p<0.001, one-way ANOVA for multiple comparison and Tukey's test as post hoc test). Both LC3-II levels and the number of GFP-LC3 puncta in the Cory B and CQ co-treatment group are much higher than in the CQ-alone treatment group (FIG. 2A-D). Meanwhile, Cory B induces GFP-LC3 puncta formation is abolished by treatment of 5 mM autophagy inhibitor 3-MA for 24 hours (FIG. 2C, D). Cells were fixed in 4% paraformaldehyde and analyzed under a confocal microscope. Data are presented as the mean±SEM of one representative experiment from three independent experiments. (***p<0.001, one-way ANOVA for multiple comparison and Tukey's test as post hoc test). […] Thus, Cory B is indeed an autophagy inducer in neuronal cells.
To compare the activities of oxindole alkaloids on autophagy induction, LC3II expression levels in N2a cells after treatment with Corynoxine B (Cory B) (FIG. 8A), Corynoxine (Cory) (FIG. 8B), Rhynchophylline (Rhy) (FIG. 8C) and Isorhynchophylline (IsoRhy) for 12 hours are examined.
In order to examine the pro-autophagic activities of the synthesized Cory B analogues, neuroblastoma 2a, a neuronal cell line, are treated with various concentrations of the analogues for 12 hrs. The cells are then harvested and lysed with RIPA buffer (150 mM NaCl, 50 mM Tris-HCl pH 7.4, 0.35% sodium deoxycholate, 1 mM EDTA, 1% NP40, 1 mM PMSF, 5 μg/ml aprotinin, 5 μg/ml leupeptin). The sample are lysed on ice with occasional vortex for 30 min, and then centrifuged at 14,000 rpm for 15 min at 4° C. The supernatant are collected and denatured at 95° C. in sample buffer for 5 min. The denatured samples are then separated on 15% SDS-PAGE gels and transferred to PVDF membrane. Membranes are then blocked with 5% non-fat milk and probed with appropriate primary and secondary antibodies. The protein signals of LC3II, marker protein of autophagy, are finally visualized with ECL kit and the protein bands density are quantified by ImageJ program. […]

[1] = system: rat primary cortical neurons; test: LC3 immunoblot in primary cultured rat cortical neurons; type: cell-based; details: different concentrations, 24 hours
Description: To further confirm the pro-autophagic effect of CB6 and CB8 on primary neurons, rat primary cortical neurons isolated from E17 rats are used in the study. The primary neurons are treated with different concentrations of CB6 and CB8 respectively for 24 hours, and autophagic markers LC3 is detected by immunoblot analysis.
The E16 pregnant rat was anesthetized by intraperitoneal injection with 3% chloral hydrate in normal saline (1 ml/100 g bdw). The uterus containing embryos were dissected and transferred to a Petri dish, and then the embryos were collected on a new petri dish containing ice cold PBS. The brains of the embryos were then dissected under stereoscope and the cortices of the brains were placed in a Petri dish containing ice cold 10% FBS DMEM. The meninges of the cortices were removed carefully and then transferred to a 15 ml tube. Total 5 ml of digestion solution (1.25% Trypsin diluted with DMEM/F12 medium) were added into the tube containing meninges-free cortices and then incubated at 37° C. for 15 min. The digestion was stopped by adding 10% FBS DMEM/F12 supplemented with 10 μg/ml DNase (Sigma, DN25). […] The viable cells without staining with typan blue were then counted under microscope. […]

| SMILES | pro-autophagic activity (LC3II protein signal) (N2a cells; N2a) | autophagy (LC3 immunoblot) [1] | LC3-II levels and number of GFP-LC3 puncta, co-treatment with CQ versus CQ alone (N2a cells; 25 μM Cory B + 30 μM CQ, 12 hours) | LC3-II levels (N2a cells; N2a, 0-25 μM, 24 hours) | autophagy induction (LC3II expression level) (N2a cells; N2a, oxindole alkaloids, 12 hours) |
| --- | --- | --- | --- | --- | --- |
| CCCN1C(=O)[C@]2(CCN3C[C@@H](CC)[C@@H](/C(=C\OC)C(=O)OC)C[C@H]32)c2ccccc21 [CB6] | novel autophagy inducer | induced autophagy |  |  |  |
| C=CCN1C(=O)[C@]2(CCN3C[C@@H](CC)[C@@H](/C(=C\OC)C(=O)OC)C[C@H]32)c2ccccc21 [CB8] | novel autophagy inducer | induced autophagy |  |  |  |
| CC[C@@H]1CN2CC[C@]3(C(=O)Nc4ccccc43)C2C[C@@H]1C(=COC)C(=O)OC (stereo partly shown) [Cory B, Corynoxine B] |  |  | much higher | increases levels of LC3-II | significantly activate autophagy |
